US8236951B2, “Thioxanthine derivatives as myeloperoxidase inhibitors” (AstraZeneca AB, priority 2002, dated 2012)

What follows are compounds tested against T1, human MPO (Homo sapiens, UniProt P05164) (assay: MPO inhibition screen (TMB oxidation, absorbance at about 650 nM)). Conditions: human MPO 2.5 nM, H2O2 100 μM, assay buffer pH 6.5, room temperature.
T1 sequence (P05164 49-745): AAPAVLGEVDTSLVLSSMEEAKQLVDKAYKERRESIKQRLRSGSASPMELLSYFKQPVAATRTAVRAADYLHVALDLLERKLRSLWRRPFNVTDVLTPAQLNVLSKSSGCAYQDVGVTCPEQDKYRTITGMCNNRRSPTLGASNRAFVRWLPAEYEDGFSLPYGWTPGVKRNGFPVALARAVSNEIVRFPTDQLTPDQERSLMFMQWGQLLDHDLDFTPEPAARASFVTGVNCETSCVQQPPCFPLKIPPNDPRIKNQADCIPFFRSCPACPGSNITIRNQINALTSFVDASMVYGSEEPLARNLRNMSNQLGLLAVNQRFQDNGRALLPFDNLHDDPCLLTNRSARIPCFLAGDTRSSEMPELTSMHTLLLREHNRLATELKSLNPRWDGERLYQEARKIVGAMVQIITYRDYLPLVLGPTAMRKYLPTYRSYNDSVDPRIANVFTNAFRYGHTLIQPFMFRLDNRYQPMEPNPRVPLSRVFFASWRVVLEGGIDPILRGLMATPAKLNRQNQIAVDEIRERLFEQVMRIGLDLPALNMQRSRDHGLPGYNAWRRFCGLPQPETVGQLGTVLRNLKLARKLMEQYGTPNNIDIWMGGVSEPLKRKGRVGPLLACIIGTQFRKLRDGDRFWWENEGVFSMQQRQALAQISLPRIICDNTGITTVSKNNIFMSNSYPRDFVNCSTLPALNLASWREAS
Format: biochemical
Description: The pharmacological activity of compounds according to the invention was tested in the following screen:
Assay buffer: 20 mM sodium/potassium phosphate buffer pH 6.5 containing 10 mM taurine and 100 mM NaCl.
Then 50 μl of H202 (final concentration 100 μM), or assay buffer alone as a control, were added for 10 minutes at room temperature. […] IC50 values were then determined using standard procedures.

| IC50 [µM] | SMILES |
| --- | --- |
| 0.49 | COc1ccc(Cn2c(=S)[nH]c(=O)c3[nH]cnc32)cc1 [Example 18, 3-(4-Methoxybenzyl)-2-thioxanthine] |
| 0.96 | O=c1[nH]c(=S)n(CCc2ccccc2)c2nc[nH]c12 [Example 20, 3-Phenethyl-2-thioxanthine] |
| 0.51 | O=c1[nH]c(=S)n(CC2CCCO2)c2nc[nH]c12 (racemic) [Example 14, 3-(2-Tetrahydrofuryl-methyl)-2-thioxanthine] |
| 0.53 | O=c1[nH]c(=S)n(CC2CCCCC2)c2nc[nH]c12 [Example 10, 3-Cyclohexylmethyl-2-thioxanthine] |
| 2.94 | O=c1[nH]c(=S)n(CCCN2CCOCC2)c2nc[nH]c12 [Example 16, 3-(3-(1-Morpholinyl)-propyl)-2-thioxanthine] |
| 0.44 | COCCn1c(=S)[nH]c(=O)c2[nH]cnc21 [Example 15, 3-(2-Methoxy-ethyl)-2-thioxanthine] |
| 7.57 | O=c1[nH]c(=S)n(Cc2ccco2)c2nc[nH]c12 [Example 17, 3-(2-Furyl-methyl)-2-thioxanthine] |
| 0.87 | CC(C)Cn1c(=S)[nH]c(=O)c2[nH]cnc21 [Example 6, 3-Isobutyl-2-thioxanthine] |
